By EC50 is commonly meant the concentration needed to bring the measured effect to its halfway point.

Structures are written as SMILES.

The assay has as its system Cryptosporidium parvum. The experiment in a line: Cytopathic effect (CPE) based assay, C. parvum infected HCT-8 cells. The note with it: HCT-8 host cell viability (CellTiter-Glo), 48 hours treatment, read-out: Cp CPE EC50. How it is done:
Human ileocecal colorectal adenocarcinoma cells (HCT-8 [HRT-18] ATCC, CCL-34) were maintained in T-175 flasks (Corning, 431080) in complete growth medium (RPMI-1640 medium (Gibco, 11875) supplemented with 10% heat-inactivated horse serum (Gibco, 26050), 1×MEM non-essential amino acids (Gibco, 11140), 10 mM HEPES (Gibco, 15630), 100 units/mL penicillin, and 100 units/mL streptomycin) at 37° C. and 5% CO2 in a humidified incubator. Cultures were passaged twice weekly using 10 mL of 1×Phosphate-Buffered Saline (PBS) without Ca^2+ and Mg^2+ (Gibco, 20012) for washing and 3-5 mL per T-175 flask of TrypLE Express Enzyme (Gibco, 12604) for dissociation of adherent cells.
Cryptosporidium parvum oocysts purchased from the Sterling Laboratory, University of Arizona (Iowa isolate) were purified from infected calf feces using discontinuous sucrose and cesium chloride centrifugation gradients and stored in PBS solution containing 0.01% Tween 20, 100 units/mL penicillin and 100 units/mL gentamicin.
Excystation and infection protocols were developed following established methods with some modifications (Gut & Nelson, 1999, Upton et aL, 1995, Bessoff et aL, 2013). Briefly, oocysts were primed in 1 mL of 10 mM hydrochloric acid in 1× Hank's Balanced Salt Solution (HBSS) (Gibco, 14025) for 10 minutes with agitation at 1000 rpm, 37° C. on an Eppendorf thermomixer, then washed twice with 1 mL of room temperature non-acidic 1× HBSS by centrifugation at 13,000 rpm for 3 minutes at 25° C. Primed oocysts were further excysted at a concentration of 1×10^6 oocysts/μL in parasite infection medium consisting of a pre-warmed and pre-gassed 1:1 formulation of Leibovitz's L-15 medium (Gibco, 11415) and UltraCULTURE medium (Lonza, 12-725F) supplemented with 2 mM sodium taurocholate (Sigma, 86339-1), 10% heat-inactivated horse serum, and 200 μM L-ascorbic acid (Sigma, 95210) at 25° C. for 10 minutes. HCT-8 monolayer cells were infected with excysted cryptosporidium at a specified multiplicity of infection (MOI). All dilutions for subsequent assays were performed in parasite infection medium without sodium taurocholate. Pre-excysted oocysts were enumerated microscopically using a C-Chip disposable hemocytometer (NanoEnTek, DHC-N01).
Compound powders were dissolved in neat DMSO (Fisher, D4121) to 10 mM and stored at 4° C. prior to dilution into source plates. Dilutions were carried out using a Microlab STAR liquid handler (Hamilton) to obtain compound source plates containing the ten-point or eight-point three fold dilutions starting from 10 mM in duplicates. Source plates were stored at 4° C. prior to spotting into assay plates. Before administration, all compound source plates were equilibrated to room temperature. A specified volume of compounds from source plate were spotted to assay plate using an Echo Acoustic liquid handler (LABCYTE, 550) so that the final DMSO concentration was less than 0.5%. Each assay plate a specified number of DMSO-treated negative control wells and a well-studied potent active compound at 100 nM as positive control. As a quality control, all positive and negative-control wells were used to calculate a Z′-value and signal to noise ratio (S:N) for each plate.
Cryptosporidium spp are obligate-intracellular parasites that infect intestinal epithelial cells and the host cell is killed upon parasite egress. […] The loss of epithelial cells is due to both rapid parasite invasion/multiplication/egress and also pro-inflammatory immune response (Adams et al., 1994, Griffiths et al., 1994). We have observed a consistent cytopathic effect (CPE) in HCT-8 cells with C. spp infection the loss of viability of the host cells using CellTiter-Glo reagent.
Confluent HCT-8 cells in T-175 flasks were directly infected with excysted oocysts at an MOI (host to parasite) of 1:2 for C. parvum and 1:4 for C. hominis. The number of host-cells is determined using a NucleoCounter (Chemometec, NC-100) in a control flask. […]
For the molecule `CN(C(=O)c1ccn2ncc(-c3ccc(C(F)(F)F)cc3)c2c1)C1=CCC(C#N)C=C1` (centres unmarked) [Example 1], the EC50 was 0.66 µM.
As for `CN(Cc1ccn2ncc(-c3ccc(C(F)(F)F)cc3)c2c1)c1ccc(F)cc1` [Example 2], the figure is over 20 µM; as for `CN(C(=O)c1ccn2ncc(-c3ccc(C(F)(F)F)cc3)c2c1)c1ccc(Cl)cc1` [Example 3], 16.5 µM.
Turning to `CN(C(=O)c1ccn2ncc(-c3ccc(C(F)(F)F)cc3)c2c1)c1ccc(F)cc1` [Example 4], the EC50 came to 6.78 µM.
As for `Cc1ccc(N(C)C(=O)c2ccn3ncc(-c4ccc(C(F)(F)F)cc4)c3c2)nc1` [Example 5], the figure is over 20 µM.
With `Cc1ccc(N(C)Cc2ccn3ncc(-c4ccc(C(F)(F)F)cc4)c3c2)nc1` [Example 7], the EC50 is over 20 µM.
The value for `CS(=O)(=O)c1ccc(N(CC2CCOCC2)C(=O)c2ccn3ncc(-c4ccc(C(F)(F)F)cc4)c3c2)cc1` [Example 12] was 12.6 µM; that for `Cc1ccc(OCc2ccn3ncc(-c4ccc(C(F)(F)F)cc4)c3c2)nc1` [Example 15] was over 20 µM.
For `Fc1ccc(CCc2ccn3ncc(-c4ccc(C(F)(F)F)cc4)c3c2)cc1` [Example 16], the EC50 is over 20 µM.
With `Fc1ccc(SCc2ccn3ncc(-c4ccc(C(F)(F)F)cc4)c3c2)cc1` [Example 21], the EC50 was over 20 µM.
In the case of `[O-][S+](Cc1ccn2ncc(-c3ccc(C(F)(F)F)cc3)c2c1)c1ccc(F)cc1` (centres unmarked) [Example 22], the concentration for a half-maximal effect (EC50) was over 20 µM.
The value for `CN(C(=O)c1ccn2ncc(-c3ccc(C(F)(F)F)cn3)c2c1)c1ccc(C#N)cc1` [Example 24] was over 20 µM.
For the molecule `CN(C(=O)c1ccn2ncc(-c3ccc(C(F)(F)F)cn3)c2c1)c1ccc(C#N)cn1` [Example 25], the concentration for a half-maximal effect (EC50) was 2.3 µM.
The value for `C[C@H](N)C(=O)Nc1ccc(-c2cnn3ccc(C(=O)N(C)c4ccc(C#N)cc4)cc23)cc1` [Example 26] was 0.142 µM.
As to `CN(C(=O)c1ccc(F)cc1)c1ccn2ncc(-c3ccc(C(F)(F)F)cc3)c2c1` [Example 29], the EC50 is over 20 µM.
Consider `CN(c1ccn2ncc(-c3ccc(C(F)(F)F)cc3)c2c1)S(=O)(=O)c1ccc(C#N)cc1` [Example 30], for which the EC50 is over 20 µM.
In the case of `CN(c1ccn2ncc(-c3ccc(C(F)(F)F)cc3)c2c1)S(=O)(=O)c1ccc(F)cc1` [Example 31], the EC50 was over 20 µM.
The value for `CN(C(=O)c1ccn2ncc(-c3ccc(C(F)(F)F)cc3)c2c1)c1ccc(C(F)(F)F)cn1` [Example 33] was 1.51 µM; that for `CN(C(=O)c1ccn2ncc(-c3ccc(C(F)(F)F)cc3)c2c1)c1ccc(S(C)(=O)=O)cn1` [Example 34] was 4.87 µM; that for `Fc1ccc(CNc2ccn3ncc(-c4ccc(C(F)(F)F)cc4)c3c2)cc1` [Example 35] was over 20 µM.
As for `CN(Cc1ccc(F)cc1)c1ccn2ncc(-c3ccc(C(F)(F)F)cc3)c2c1` [Example 36], the figure is over 20 µM.
The value for `CN(C(=O)c1ccc(C(F)(F)F)nc1)c1ccn2ncc(-c3ccc(C(F)(F)F)cc3)c2c1` [Example 37] was 3.79 µM.
`CN(C(=O)c1ccc(C(F)(F)F)cn1)c1ccn2ncc(-c3ccc(C(F)(F)F)cc3)c2c1` [Example 38]: the EC50 came to 4.71 µM.
As for `N#Cc1ccc(C(=O)N(CC2CCOCC2)c2ccn3ncc(-c4ccc(C(F)(F)F)cc4)c3c2)cc1` [Example 39], the figure is over 20 µM; as for `CN(C(=O)c1ccn2ncc(-c3cnc4[nH]ccc4c3)c2c1)c1ccc(C#N)cc1` [Example 40], 0.074 µM; as for `CN(C(=O)c1ccn2ncc(-c3ccc(N)cc3)c2c1)c1ccc(C#N)cc1` [Example 42], 0.142 µM.
On to `CN(C(=O)Nc1ccc(F)cc1)c1ccn2ncc(-c3ccc(C(F)(F)F)cc3)c2c1` [Example 47], for which the EC50 was over 20 µM.
As for `CN(C(=O)c1ccc(C(C)(F)F)nc1)c1ccn2ncc(-c3ccc(C(F)(F)F)cc3)c2c1` [Example 48], the figure is 6.3 µM.
The value for `CN(C(=O)c1ccc(C2CC2)nc1)c1ccn2ncc(-c3ccc(C(F)(F)F)cc3)c2c1` [Example 49] was 19.2 µM; that for `CN(C(=O)c1ccc(C2CC2)cc1)c1ccn2ncc(-c3ccc(C(F)(F)F)cc3)c2c1` [Example 50] was over 20 µM.
The value for `CN(C(=O)c1ccc(F)cn1)c1ccn2ncc(-c3ccc(C(F)(F)F)cc3)c2c1` [Example 51] was over 20 µM; that for `CN(C(=O)c1ccc(Cl)cc1)c1ccn2ncc(-c3ccc(C(F)(F)F)cc3)c2c1` [Example 55] was 7.3 µM; that for `CN(C(=O)c1ccc(F)cc1)c1ccn2ncc(-c3ccc(C(N)=O)cc3)c2c1` [Example 56] was 0.692 µM.
On to `CNc1nnc(-c2ccc(-c3cnn4ccc(N(C)C(=O)c5ccc(F)cc5)cc34)cc2)s1` [Example 57], for which the EC50 came to 5.59 µM.
For `Cc1ccc(-c2cnn3ccc(C(=O)N(C)c4ccc(C#N)cn4)cc23)nc1` [Example 59], the EC50 was over 20 µM.
Consider `COc1ccc(-c2cnn3ccc(C(=O)N(C)c4ccc(C#N)cn4)cc23)nc1` [Example 60], for which the concentration giving a half-maximal response (EC50) was 2.37 µM.
As for `CN(C(=O)c1ccn2ncc(-c3ccc(C(N)=O)cn3)c2c1)c1ccc(C#N)cn1` [Example 61], the figure is 17.8 µM; as for `CN(C(=O)c1ccn2ncc(-c3ccc(C(N)=O)cc3)c2c1)c1ccc(C(F)(F)F)cn1` [Example 62], 0.028 µM.
The value for `Cc1ccc(N(C)C(=O)c2ccn3ncc(-c4ccc(C(N)=O)cc4)c3c2)nc1` [Example 63] was 0.195 µM.
In the case of `CC(c1ccn2ncc(-c3ccc(C(N)=O)cc3)c2c1)N1C(=O)COc2cc(F)ccc21` (centres unmarked) [Example 66], the half-maximal effective concentration (EC50) stood at 0.132 µM.
Turning to `CNC(=O)c1ccc(-c2cnn3ccc(C(=O)N(C)c4ccc(C#N)cc4)cc23)cc1` [Example 67], the EC50 was 0.026 µM.
Take `CC(=O)Nc1ccc(-c2cnn3ccc(C(C)N(C)c4ccc(C)cn4)cc23)cc1` (centres unmarked) [Example 68]: the EC50 is 19.6 µM.
In the case of `CC(=O)Nc1ccc(-c2cnn3ccc(C(=O)N(C)c4ccc(C#N)cn4)cc23)cc1` [Example 69], the EC50 is 0.201 µM.
As for `CNC(=O)c1ccc(-c2cnn3ccc(C(=O)N4CCOc5cc(F)ccc54)cc23)cc1` [Example 73], the figure is 0.964 µM; as for `CNC(=O)c1ccc(-c2cnn3ccc(C(=O)N4c5ccc(F)cc5OCC4C)cc23)cc1` (centres unmarked) [Example 74], 1.24 µM.
Turning to `CNC(=O)c1ccc(-c2cnn3ccc(C(=O)N(c4ccc(C#N)cn4)C4COC4)cc23)cc1` [Example 76], the EC50 is over 20 µM.
As for `CN(C(=O)c1ccn2ncc(-c3cnc(N)c(F)c3)c2c1)c1ccc(C#N)cc1` [Example 79], the figure is 0.205 µM; as for `Cc1cc(-c2cnn3ccc(C(=O)N(C)c4ccc(C#N)cc4)cc23)cc(C)c1N` [Example 80], 1.17 µM.
The value for `Cc1cc(-c2cnn3ccc(C(=O)N(C)c4ccc(C#N)cc4)cc23)cnc1N` [Example 81] was 0.683 µM; that for `CN(C(=O)c1ccn2ncc(-c3cnc(N)c(C(F)(F)F)c3)c2c1)c1ccc(C#N)cn1` [Example 84] was 4.27 µM; that for `CN(C(=O)c1ccn2ncc(-c3cnc(N)c(Cl)c3)c2c1)c1ccc(C#N)cn1` [Example 86] was 0.501 µM.
On to `COc1cc(-c2cnn3ccc(C(=O)N(C)c4ccc(C#N)cn4)cc23)cnc1N` [Example 88], for which the EC50 stood at 2.25 µM.
In the case of `CN(C(=O)c1ccn2ncc(-c3ccc(C(N)=O)cc3)c2c1)c1ccc(Cl)cc1C=O` [Example 89], the concentration giving a half-maximal response (EC50) is 0.085 µM.

Source of the values: US20190030009A1, “COMPOUNDS AND COMPOSITIONS FOR THE TREATMENT OF CRYPTOSPORIDIOSIS” (Novartis AG, priority 2016, published 2019).
